Experimental data as given in PubChem BioAssay (NCI).
Several values for one entry are separate records, joined by “and”; a condition that tells them apart may be missing. Equal entries are not always repeated.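 48-hour exposure; five concentrations; linearly interpolated endpoints. At the GI50, growth is halved. TGI: concentration producing complete growth inhibition.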

Tests used:
Experiment in all cases: DTP human tumour cell line panel, 48 h
A498 renal = tested on: A498 renal
CCRF-CEM leukemia = tested on: CCRF-CEM leukemia
HL-60(TB) leukemia = tested on: HL-60(TB) leukemia
HOP-62 NSCLC = tested on: HOP-62 NSCLC
K-562 leukemia = tested on: K-562 leukemia
SF-268 CNS = tested on: SF-268 CNS
SW-620 colon = tested on: SW-620 colon
UACC-62 melanoma = tested on: UACC-62 melanoma
NCI/ADR-RES ovarian = tested on: NCI/ADR-RES ovarian
PC-3 prostate = tested on: PC-3 prostate

Structure (SMILES)	TGI (A498 renal)	TGI (CCRF-CEM leukemia)	TGI (HL-60(TB) leukemia)	TGI (HOP-62 NSCLC)	TGI (K-562 leukemia)	TGI (SF-268 CNS)	TGI (SW-620 colon)	TGI (UACC-62 melanoma)	TGI (NCI/ADR-RES ovarian)	TGI (PC-3 prostate)	GI50 (A498 renal)	GI50 (CCRF-CEM leukemia)	GI50 (HL-60(TB) leukemia)	GI50 (HOP-62 NSCLC)	GI50 (K-562 leukemia)	GI50 (SF-268 CNS)	GI50 (SW-620 colon)	GI50 (UACC-62 melanoma)	GI50 (NCI/ADR-RES ovarian)	GI50 (PC-3 prostate)
O=c1/c(=C/c2cccc([N+](=O)[O-])c2)sc2nc3ccccc3n12	> 100 µM	> 100 µM	> 100 µM	> 100 µM	> 100 µM	> 100 µM	> 100 µM	> 100 µM												
Cc1nc(Cl)nc(Cl)c1C		> 100 µM	> 100 µM	> 100 µM	> 100 µM	> 100 µM	> 100 µM		> 100 µM	> 100 µM										
CCC[CH2][Sn]1([CH2]CCC)[O]C(=O)c2cc(I)cc(I)c2[O]1	2.67 µM	0.79 µM	2.22 µM	4.12 µM	1.25 µM	2.89 µM	1.57 µM	2.17 µM			1.37 µM	0.22 µM	0.4 µM	2.13 µM	0.284 µM	1.29 µM	0.367 µM	1.01 µM		
N#C/C(=C\c1ccc(-c2ccc(Cl)cc2)o1)C(=O)Nc1ncc(Cc2ccc(Cl)cc2)s1	4.19 µM	> 100 µM	> 100 µM	6.33 µM	> 100 µM	19.8 µM		6.57 µM	6.31 µM	3.67 µM	1.58 µM	2.21 µM	> 100 µM	2.26 µM	3.92 µM	2.68 µM		2.11 µM	1.87 µM	1.5 µM
COC(=O)C1=C2CCC(=O)[C@@]2(C)C(OC(C)=O)C=CC1 (some centres undefined)	> 100 µM	> 100 µM	> 100 µM	> 100 µM	> 100 µM		> 100 µM	> 100 µM												
COc1ccccc1OCC(=O)Nc1sc2c(c1C(N)=O)CCC2	> 100 µM	> 100 µM	> 100 µM	> 100 µM	> 100 µM	> 100 µM	> 100 µM	> 100 µM	> 100 µM		> 100 µM	> 100 µM	> 100 µM	> 100 µM	> 100 µM	> 100 µM	> 100 µM	38.1 µM	> 100 µM	
Oc1ccccc1-c1nn(CNc2cccc(Cl)c2)c(=S)o1	> 100 µM	27.3 µM		> 100 µM	> 100 µM	> 100 µM	> 100 µM	> 100 µM	40 µM	> 100 µM	60.1 µM	3.63 µM		90.8 µM	38.4 µM	59.4 µM	27.2 µM	41.5 µM	0.371 µM	32.9 µM
Cc1[nH]c2ccccc2c1C1Cc2ccccc2N1C(=O)/C=C/C=C/c1ccccc1 (centres undefined)	> 100 µM	> 100 µM	> 100 µM	> 100 µM	> 100 µM		> 100 µM	> 100 µM												
CS(=O)(=O)NNS(=O)(=O)c1cccc([N+](=O)[O-])c1	> 100 µM	> 100 µM	> 100 µM	> 100 µM	> 100 µM		> 100 µM	> 100 µM												
Oc1ccc(-c2nnc3sc(-c4ccc(F)c(Oc5ccccc5)c4)nn23)cc1		> 100 µM	> 100 µM	42.7 µM	> 100 µM	53.2 µM	> 100 µM	66.8 µM	> 100 µM	> 100 µM		> 100 µM	> 100 µM	21.2 µM	> 100 µM	18 µM	83 µM	19.8 µM	66.5 µM	36.8 µM
CC1(C)COC(C23C4C5C2C2C3C4C52I)=N1 (centres undefined)	> 100 µM	> 100 µM		> 100 µM	> 100 µM	> 100 µM	> 100 µM	> 100 µM												
COc1ccc(C(=O)OCC2OC(n3cnc4c(=S)nc[nH]c43)C(OC(=O)c3ccc(OC)cc3)C2OC(=O)c2ccc(OC)cc2)cc1 (centres undefined)		93.3 µM	> 100 µM	> 100 µM	> 100 µM	> 100 µM	> 100 µM	> 100 µM												
CC(=O)N1c2ccccc2C23CCN(C)CC4C(C)OCC(C4CC2=O)C13 (centres undefined)	> 100 µM	> 100 µM	> 100 µM		> 100 µM	> 100 µM	> 100 µM	> 100 µM	> 100 µM	> 100 µM										
[O-]c1c2c(nn1-c1ccccc1)c1ccccc1c[n+]2Cc1ccccc1		> 100 µM	> 100 µM	> 100 µM	> 100 µM	> 100 µM	> 100 µM	> 100 µM												
Cc1cc2c(cc1Cl)SC1=CC(=O)N(c3ccccc3)C1=NS2(=O)=O		95.5 µM	63.8 µM	> 100 µM		> 100 µM	> 100 µM	> 100 µM	> 100 µM	> 100 µM		24.8 µM	23.8 µM	46 µM		92.3 µM	33.1 µM	33 µM	37.8 µM	37.4 µM
CC1CC2(C)ON=C(c3ccccc3)N2c2ccccc2S1 (centres undefined)		77.6 µM			43 µM			84.3 µM	46.6 µM		34.7 µM	28.1 µM	23.5 µM	56.7 µM	16.3 µM	36.3 µM	39.3 µM	21 µM	17.6 µM	
CCCCCCCCCCCCCC(=O)O[C@H]1CC[C@H](NC(=O)[C@H](OC)[C@H](O)[C@@H](O)[C@H](O)/C=C/C(C)C)C(=O)NC1	51.2 µM and > 100 µM	8.44 µM and 10.7 µM		51.2 µM and 34 µM	11.8 µM and 15.4 µM	18.8 µM and 22.5 µM	11.2 µM and 12.8 µM	0.0143 µM and 0.045 µM	51.2 µM and 26.3 µM	51.2 µM and 12.7 µM				< 0.001 µM					3.58 µM	0.0152 µM
CC(=O)OC(/C=C1/C=CC(=O)O1)COC(=O)c1ccccc1 (centres undefined)	> 31.2 µM	> 31.2 µM	> 31.2 µM	> 31.2 µM	> 31.2 µM	> 31.2 µM	> 31.2 µM	> 31.2 µM												
